In the supplement of paper PMC11451515:

How the values were obtained:
Details in all cases: 48 h
[1] = tested on: NOMO1; experiment: cell viability relative to DMSO control; higher = less cytotoxic
Method in brief: (§1)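 Viability values are per-plate percentages of DMSO wells, with background from cell-free wells. Library compounds in DMSO were pin-dosed, in an 11-point threefold series from 47 μM to 0.79 nM, onto NOMO1 or SEM (500 cells/well) or P12-Ichikawa (1000 cells/well) leukemia cells in 1536-well plates (5 μl). Those cells had been adapted for at least four passages in each medium, and CellTiter-Glo One luminescence was read after 48 h at 37°C.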

[2] = tested on: P12-Ichikawa; experiment: as above
Method in brief: as §1

[3] = tested on: SEM cells; experiment: as above
Method in brief: as §1

[4] = tested on: NOMO1; experiment: AUC of viability dose-response curve (% viability x log10 dose units); higher = less sensitive
Method in brief: (§2)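 Library compounds in DMSO were applied for 48 h at 37°C at 11 threefold doses (47 μM to 0.79 nM) to medium-adapted leukemia cells in 1536-well plates holding 500 or 1000 cells/well. Luminescence from CellTiter-Glo One was normalised plate by plate against DMSO and cell-free wells. Area under the curve came from trapezoidal integration of a log-logistic fit, after scaling curves that rose above full viability and discarding those that failed quality control. The fit had four parameters and used log10 doses.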

[5] = tested on: P12-Ichikawa; experiment: as above
Method in brief: as §2

[6] = tested on: SEM cells; experiment: as above
Method in brief: as §2

COc1ccc([S+](=O)([O-])Nc2cccnc2Nc2ccc(O)cc2)cc1
cell viability [%]
Details | [1] | [2] | [3]
HPLM + 10% dialyzed FBS, 0.000781 µM | – | 124 | 124
HPLM + 10% dialyzed FBS, 0.00234 µM | – | 118 | 127
HPLM + 10% dialyzed FBS, 0.00702 µM | – | 124 | 114
HPLM + 10% dialyzed FBS, 0.0211 µM | – | 119 | 116
HPLM + 10% dialyzed FBS, 0.0632 µM | – | 122 | 127
HPLM + 10% dialyzed FBS, 0.19 µM | – | 125 | 115
HPLM + 10% dialyzed FBS, 0.569 µM | – | 129 | 123
HPLM + 10% dialyzed FBS, 1.71 µM | – | 122 | 96.1
HPLM + 10% dialyzed FBS, 5.12 µM | – | 17.2 | 20.9
HPLM + 10% dialyzed FBS, 15.4 µM | – | 14.8 | 25.5
HPLM + 10% dialyzed FBS, 46.1 µM | – | 10.8 | 21.6
RPMI 5 mM glucose + 10% FBS, 0.000781 µM | 117 | 125 | 76.2
RPMI 5 mM glucose + 10% FBS, 0.00234 µM | 107 | 121 | 82.1
RPMI 5 mM glucose + 10% FBS, 0.00702 µM | 116 | 116 | 65.8
RPMI 5 mM glucose + 10% FBS, 0.0211 µM | 115 | 126 | 86.4
RPMI 5 mM glucose + 10% FBS, 0.0632 µM | 121 | 120 | 77.6
RPMI 5 mM glucose + 10% FBS, 0.19 µM | 101 | 119 | 82.6
RPMI 5 mM glucose + 10% FBS, 0.569 µM | 129 | 118 | 77.1
RPMI 5 mM glucose + 10% FBS, 1.71 µM | 97.6 | 122 | 79.1
RPMI 5 mM glucose + 10% FBS, 5.12 µM | 28.6 | 22.3 | 36.2
RPMI 5 mM glucose + 10% FBS, 15.4 µM | 23.2 | 17.7 | 17.5
RPMI 5 mM glucose + 10% FBS, 46.1 µM | 29.4 | 17.3 | 13.5
RPMI 5 mM glucose + 10% dialyzed FBS, 0.000781 µM | 119 | 117 | 114
RPMI 5 mM glucose + 10% dialyzed FBS, 0.00234 µM | 113 | 128 | 109
RPMI 5 mM glucose + 10% dialyzed FBS, 0.00702 µM | 110 | 118 | 109
RPMI 5 mM glucose + 10% dialyzed FBS, 0.0211 µM | 111 | 114 | 105
RPMI 5 mM glucose + 10% dialyzed FBS, 0.0632 µM | 114 | 121 | 102
RPMI 5 mM glucose + 10% dialyzed FBS, 0.19 µM | 110 | 113 | 124
RPMI 5 mM glucose + 10% dialyzed FBS, 0.569 µM | 116 | 108 | 113
RPMI 5 mM glucose + 10% dialyzed FBS, 1.71 µM | 114 | 113 | 96.5
RPMI 5 mM glucose + 10% dialyzed FBS, 5.12 µM | 71.5 | 39 | 47.5
RPMI 5 mM glucose + 10% dialyzed FBS, 15.4 µM | 36 | 28 | 23.4
RPMI 5 mM glucose + 10% dialyzed FBS, 46.1 µM | 33.5 | 24 | 20.2

AUC of viability dose-response curve
Details | HPLM + 10% dialyzed FBS | RPMI 5 mM glucose + 10% FBS | RPMI 5 mM glucose + 10% dialyzed FBS
[4] | 387 | 379 | 410
[5] | 372 | 377 | 388

FC(F)(F)c1ccc(CNc2ccc(Cc3c[nH]c4ncc(Cl)cc34)cn2)cn1
AUC of viability dose-response curve
Details | HPLM + 10% dialyzed FBS | RPMI 5 mM glucose + 10% FBS | RPMI 5 mM glucose + 10% dialyzed FBS
[5] | 268 | 367 | 370
[6] | 317 | 245 | 314

CN(C)CCCN\C1=C\2C(=O)N(C)C(=O)\N=C2N(C)C3=C1C=CC=C3
AUC of viability dose-response curve
Details | [4] | [5] | [6]
HPLM + 10% dialyzed FBS | 446 | 442 | 396
RPMI 5 mM glucose + 10% FBS | 446 | 421 | 394
RPMI 5 mM glucose + 10% dialyzed FBS | 432 | 429 | 397

C[C@@H]1C(=O)OC2[C@H](O)[C@]34[C@H]5C[C@@H](C(C)(C)C)[C@]36[C@@H](OC(=O)[C@@H]6O)O[C@@]4(C(=O)O5)[C@]21O (some centres undefined)
[3], HPLM + 10% dialyzed FBS
Details | cell viability [%]
0.000781 µM | 116
0.00234 µM | 102
0.00702 µM | 129
0.0211 µM | 119
0.0632 µM | 127
0.19 µM | 116
0.569 µM | 117
1.71 µM | 119
5.12 µM | 91.8
15.4 µM | 107
46.1 µM | 65.8

AUC of viability dose-response curve
Details | [4] | [5] | [6]
HPLM + 10% dialyzed FBS | 450 | 452 | 451
RPMI 5 mM glucose + 10% FBS | 457 | 445 | 437
RPMI 5 mM glucose + 10% dialyzed FBS | 457 | 450 | 424

COC(=O)N[C@H](C(=O)N1CCC[C@H]1c1ncc(-c2ccc(-c3ccc(-c4cnc([C@@H]5CCCN5C(=O)[C@@H](NC(=O)OC)C(C)C)[nH]4)cc3)cc2)[nH]1)C(C)C
[3], HPLM + 10% dialyzed FBS
Details | cell viability [%]
0.000781 µM | 90.4
0.00234 µM | 116
0.00702 µM | 132
0.0211 µM | 125
0.0632 µM | 129
0.19 µM | 126
0.569 µM | 117
1.71 µM | 131
5.12 µM | 133
15.4 µM | 126
46.1 µM | 98.3

AUC of viability dose-response curve
Details | [4] | [5] | [6]
HPLM + 10% dialyzed FBS | 437 | 473 | 468
RPMI 5 mM glucose + 10% FBS | 458 | 474 | 468
RPMI 5 mM glucose + 10% dialyzed FBS | 470 | 473 | 460
